“And” between values parts separate entries of the source, which are not always exact repeats. Identical values can stand only once. “Also recorded” adds a separate entry of the source. Like-named read-outs stand apart in the source and are kept apart here.
Assays:
[1] = Tolerability of chronic intraperitoneal ZST316 treatment; format: in vivo; settings: ZST316 30 mg/Kg i.p. daily for five days
Method: (§1) Two ×10^6 (in 10 μL) MDA-MB-231 TNBC cells were transplanted into the mammary fat pad. Tumour growth was regularly monitored with a calliper and treatment with ZST316 was given when the tumour volume reached 400–500 mm^3. Mice received either a single dose (acute treatment) or a daily dose of ZST316 30 mg/Kg intraperitoneally for five days (chronic treatment).

DDAH1 = settings: cited from earlier work
[2] = Tumour distribution of ZST316 and L-257 after intraperitoneal ZST316 in MDA-MB-231 TNBC xenograft (HPLC-MS/MS); format: in vivo, SCID mice; settings: for time intra-tumour concentration remained above the IC50 and Ki values for DDAH1 inhibition: estimated
Method: (§2) Six-week-old female severe combined immunodeficiency disease (SCID) mice (n = 24; Charles River Laboratories Italia S.r.L., Calco, Lecco, Italy), were housed under rigorous standards and handled under pathogen-free conditions in the Animal Care Facilities of the Mario Negri Institute for Pharmacological Research (Milan, Italy).
as §1
(§3) Plasma and tumour tissue (n = 3 mice/each time point) were sampled at 1, 8 and 24 h after treatment (on day 5 for the chronic treatment). To collect plasma, mice were anesthetized by isoflurane, the blood was drained from the retro-orbital plexus into heparinised tubes and centrifuged for 10 min at 4000× g at 4 °C. Tumours were collected and immediately frozen. Plasma and tumour samples were stored at −20 °C until analysis.
Control MDA-MB-231 TNBC cell tumours were homogenized with NH4COOH 50 mM (1:4, w:v). The homogenate (90 μL) was spiked with 5 μL of ZST316 and L-257 working solutions prepared in the range of 100–10,000 ng/mL generating seven tumour calibration standards in the range 25–5000 ng/g. The calibration curve included also a blank and a zero blank standard plasma sample (processed with IS). To prepare QC samples, 90 μL of the homogenate was mixed with an appropriate amount of QC working solutions to obtain QC plasma samples at the nominal concentration of 75, 375, and 1250 ng/g.
The procedure was similar to that described for plasma in Section 3.3.2.
(§4) Reversed-phase chromatography was performed under gradient conditions with separation on a HILIC column, C18, 3 μm, 100 A, 2.1 × 150 mm, Waters (Milford, MA, USA), coupled with a 3 μm, 3.9 × 5.0 mm guard column of the same material at the flow rate of 0.2 mL/min. Gradient features were: 10% mobile phase (MP) A (NH4HCO2 10 mM, 10% CH3CN, 0.1% HCOOH) and 90% MP B (CH3CN, 0.1% HCOOH) as initial constant condition; then to 90% MP A in 6 min and constant condition for 1.5 min. Return to start condition in 0.5 min and conditioning for 5.5 min. Total run time: 13.5 min. Analyte detection and quantification were performed using tandem mass spectrometry (MS/MS) operating in positive ionization mode as previously reported for ZST316 and ZST152 [31].

[3] = Plasma pharmacokinetics of ZST316 and L-257 after intraperitoneal ZST316 in MDA-MB-231 xenograft mice (HPLC-MS/MS); format: in vivo, SCID mice
Method: as §2, §1, §3
To assay ZST316 and L-257, 10 μL of IS (ZST152 WS: 500 ng/mL) were added to 100 μL of study plasma samples, standards, and QCs in a polypropylene tube. The samples were then added with 10 μL of NH4COOH 50 mM, mixed and added with 400 μL CH3OH:0.1% HCOOH, vortex mixed again and centrifuged at 13,200 rpm for 10 min at 4 °C. The supernatant was transferred to a 1.5 mL Eppendorf tube, dried under nitrogen flow and reconstituted with 100 μL of mobile phase (MP) A:B (1:1, v/v). Finally, the samples were centrifuged at 13,200 rpm for 10 min at 4 °C and the supernatant transferred into vials for HPLC-MS/MS analysis.
as §4

[4] = design: method as in PMID 35164277; settings: four-week-old FVB mice; oral, intravenous and intraperitoneal administration; cited from earlier work
[5] = Stability of ZST316 and L-257 in frozen plasma; format: in vitro ADME, mice; settings: for Mean found value, Stability −20 °C / Accuracy (%), Stability −20 °C: plasma QC, one month at −20 °C; for Mean found value, Stability −20 °C: n=3; for Accuracy (%), Stability −20 °C: percent of nominal
Method: The stability of ZST316 and L-257 in plasma was assessed by analysing QC samples containing both compounds after prolonged storage in the same conditions of the study samples.
Stability was determined by analysing 3 QCs per concentration level immediately after the preparation, and 3 QCs per concentration level after one month of storage at −20 °C. The analytes were considered stable at each QC concentration when the freshly prepared samples and the stability test samples differed by no more than 15% from the nominal concentrations.

[6] = acute (single dose) ZST316 30 mg/Kg i.p., 1 h
[7] = acute ZST316 30 mg/Kg i.p., 1 h, 30 mg/kg
[8] = acute ZST316 30 mg/Kg i.p., 8 h, 30 mg/kg
[9] = acute ZST316 30 mg/Kg i.p., 8 h, n=3, 30 mg/kg
[10] = acute ZST316 30 mg/Kg i.p., 24 h, 30 mg/kg
[11] = acute ZST316 30 mg/Kg i.p., approximately estimated due to limited time points
[12] = chronic (five-day) ZST316 30 mg/Kg i.p. daily, 1 h
[13] = chronic (five-day) ZST316 30 mg/Kg i.p. daily, 24 h
[14] = chronic ZST316 30 mg/Kg i.p. daily
[15] = chronic ZST316 30 mg/Kg i.p. daily, day 5, 1 h, 30 mg/kg
[16] = chronic ZST316 30 mg/Kg i.p. daily, day 5, 8 h, 30 mg/kg
[17] = chronic ZST316 30 mg/Kg i.p. daily, day 5, 8 h, n=3, 30 mg/kg
[18] = chronic ZST316 30 mg/Kg i.p. daily, day 5, 24 h, 30 mg/kg
[19] = chronic ZST316 30 mg/Kg i.p. daily, approximately estimated due to limited time points
[20] = range over acute and chronic treatment

## COCCNC(N)=NCCC[C@H](N)C(=O)NS(C)(=O)=O [ZST316]
[1]
  tolerability / signs of toxicity: well tolerated, and no signs of toxicity were recorded
DDAH1; equivalent of 261 nM, personal data
  Ki expressed as concentration: 0.0803 µg/mL
DDAH1; original value
  Ki: 1000 nM
DDAH1; revised using a more performant assay, personal data
  Ki: 261 nM
[2]; [6]
  mean intra-tumour concentration: 2.0 µg/g
[2]; acute (single dose) ZST316 30 mg/Kg i.p., 24 h
  mean intra-tumour concentration: 0.04 µg/g
[2]; acute ZST316 30 mg/Kg i.p.
  tumour AUC: 11.4 µg·h/g
[2]; acute ZST316 30 mg/Kg i.p., 30 mg/kg
  Cmax tumour: 2.00 μg/g and 6.47 μM
[2]; [7]
  tumour concentration, individual mice: 2470 ng/g and 1210 ng/g and 2320 ng/g and 7.99 µM and 3.91 µM and 7.50 µM
[2]; [8]
  tumour concentration, individual mice: 109 ng/g and 173 ng/g and 0.48 µM and 0.35 µM and 0.56 µM and 149 ng/g
[2]; [9]
  mean tumour concentration: 144 ng/g and 0.46 μM
[2]; [10]
  tumour concentration, individual mice: 37.3 ng/g and 32.2 ng/g and 49.0 ng/g and 0.12 µM and 0.10 µM and 0.16 µM
[2]; [11]
  half-life tumour: 4.5 h
[2]; after acute ZST316 treatment
  time intra-tumour concentration remained above the IC50 and Ki values for DDAH1 inhibition: 15.5 h
[2]; after chronic ZST316 treatment
  time intra-tumour concentration remained above the IC50 and Ki values for DDAH1 inhibition: 16.5 h
[2]; [12]
  mean intra-tumour concentration: 2.09 µg/g
[2]; [13]
  mean intra-tumour concentration: 0.06 µg/g
[2]; [14]
  tumour AUC: 11.8 µg·h/g
[2]; [15]
  tumour concentration, individual mice: 2490 ng/g and 1750 ng/g and 2020 ng/g and 8.05 µM and 5.66 µM and 6.53 µM
[2]; [16]
  tumour concentration, individual mice: 110 ng/g and 146 ng/g and 0.39 µM and 0.36 µM and 0.47 µM and 120 ng/g
[2]; [17]
  mean tumour concentration: 125 ng/g and 0.41 μM
[2]; chronic ZST316 30 mg/Kg i.p. daily, day 5, 24 h
  mean tumour concentration: 57.0 ng/g
[2]; [18]
  tumour concentration, individual mice: 37.8 ng/g and 108 ng/g and 25.2 ng/g and 0.12 µM and 0.35 µM and 0.08 µM
[2]; chronic ZST316 30 mg/Kg i.p. daily, day 5, 24 h, n=3
  mean tumour concentration: 0.18 µM
[2]; chronic ZST316 30 mg/Kg i.p. daily, 30 mg/kg
  Cmax tumour: 2.09 μg/g and 6.76 μM
[2]; [19]
  half-life tumour: 5.0 h
[2]; [20]
  half-life tumour: 4.5 to 5.0 h
[2]; representative chromatogram, sample taken at 24 h after acute treatment (b8)
  measured concentration in unknown study tumour sample (Figure 3): 37.3 ng/g
[3]; ZST316 30 mg/Kg i.p. daily for five days, day 5 vs day 1, 30 mg/kg
  accumulation in plasma and tumour during chronic treatment: without accumulation; also recorded: No accumulation
[3]; [6]
  mean plasma concentration: 2.79 µg/mL
[3]; acute (single dose) ZST316 30 mg/Kg i.p., 24 h, 30 mg/kg
  mean plasma concentration: 0.05 µg/mL and 0.04 µg/mL
[3]; acute ZST316 30 mg/Kg i.p.
  Cmax: 9.03 µM
  Cmax plasma: 2790 ng/mL
  Plasma AUC1–24 h: 0.050
[3]; acute ZST316 30 mg/Kg i.p. (day 1)
  Plasma AUC1–24 h: 15.3 µg·h/mL
[3]; [7]
  plasma concentration, individual mice: 3000 ng/mL and 2150 ng/mL and 3210 ng/mL and 9.70 µM and 6.95 µM and 10.38 µM
[3]; [8]
  plasma concentration, individual mice: 162 ng/mL and 147 ng/mL and 0.38 µM and 0.52 µM and 0.48 µM and 119 ng/mL
[3]; [9]
  mean plasma concentration: 143 ng/mL and 0.46 μM
[3]; [10]
  plasma concentration, individual mice: 64.2 ng/mL and 53.7 ng/mL and 25 ng/mL and 0.21 µM and 0.17 µM and 0.08 µM
[3]; [11]
  half-life plasma: 4.4 h
[3]; [12]
  mean plasma concentration: 2.22 µg/mL
[3]; [13]
  mean plasma concentration: 0.12 µg/mL
[3]; [14]
  Cmax: 7.18 µM
  Cmax plasma: 2220 ng/mL
  Plasma AUC1–24 h: 0.040
[3]; chronic ZST316 30 mg/Kg i.p. daily (day 5)
  Plasma AUC1–24 h: 12.4 µg·h/mL
[3]; [15]
  plasma concentration, individual mice: 2440 ng/mL and 2030 ng/mL and 2200 ng/mL and 7.89 µM and 6.57 µM and 7.12 µM
[3]; [16]
  plasma concentration, individual mice: 81.7 ng/mL and 54.7 ng/mL and 41.8 ng/mL and 0.26 µM and 0.18 µM and 0.14 µM
[3]; [17]
  mean plasma concentration: 59.4 ng/mL and 0.19 μM
[3]; [18]
  plasma concentration, individual mice: 101 ng/mL and 173 ng/mL and 86.3 ng/mL and 0.33 µM and 0.56 µM and 0.28 µM
[3]; [19]
  half-life plasma: 7.1 h
[3]; [20]
  half-life plasma: 4.4 to 7.1 h
[3]; representative chromatogram, sample taken at 1 h after acute treatment (b8)
  measured concentration in unknown study plasma sample (Figure 2): 2200 ng/mL
[4]
  tolerability: excellent tolerability
[5]; at least one month at −20 °C
  stability in frozen plasma: stable
[5]; actual value 15.00 ng/mL
  Mean found value, Stability −20 °C: 14.3 ng/mL
  Accuracy (%), Stability −20 °C: 95.4%
[5]; actual value 75.00 ng/mL
  Mean found value, Stability −20 °C: 72.4 ng/mL
  Accuracy (%), Stability −20 °C: 96.5%
[5]; actual value 250.00 ng/mL
  Mean found value, Stability −20 °C: 240.0 ng/mL
  Accuracy (%), Stability −20 °C: 96.0%
